Laboratory results from paper PMC4336611 (Chemistry & biology, 2015).

Target: LPA2 (Homo sapiens, UniProt Q9HBW0)
Assay type: cell-based

LPA2, sequence (Q9HBW0 whole entry): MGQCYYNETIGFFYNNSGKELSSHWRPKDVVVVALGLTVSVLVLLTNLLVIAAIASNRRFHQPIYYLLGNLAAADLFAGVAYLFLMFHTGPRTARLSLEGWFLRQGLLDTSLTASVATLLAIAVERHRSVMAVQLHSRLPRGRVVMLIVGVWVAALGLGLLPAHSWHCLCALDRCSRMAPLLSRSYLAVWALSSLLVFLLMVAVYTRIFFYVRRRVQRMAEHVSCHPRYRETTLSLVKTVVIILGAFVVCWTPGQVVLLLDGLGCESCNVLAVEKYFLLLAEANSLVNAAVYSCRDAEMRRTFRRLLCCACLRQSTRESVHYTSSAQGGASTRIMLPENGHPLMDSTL

EC50: ~100 nM
SMILES: O=C(O)c1ccccc1S(=O)(=O)NCCCCN1C(=O)c2cccc3cccc(c23)C1=O [DBIBB, 2-[4-(1,3-Dioxo-1H,3H-benzo[de]isoquinolin-2-yl)butylsulfamoyl] benzoic acid]
